# US11912703B2, “6-azaindole compounds” (BRISTOL-MYERS SQUIBB COMPANY, priority 2017, dated 2024)
# Where two headings read alike, the source gives them in different places.
# Assays:
# human TLR7 = human TLR7 (Homo sapiens (Human), UniProt Q9NYK1); assay: TLR7 inhibition reporter assay (HEK-Blue SEAP); assay type: cell-based; settings: HEK-Blue cells overexpressing human TLR7, gardiquimod 7.5 μM stimulation
# Procedure: HEK-Blue™-cells (Invivogen) overexpressing human TLR7, TLR8 or TLR9 receptors were used for screening inhibitors of these receptors using an inducible SEAP (secreted embryonic alkaline phosphatase) reporter gene under the control of the IFN-β minimal promoter fused to five NF-κB and AP-1-binding sites. Briefly, cells are seeded into Greiner 384 well plates (15000 cells per well for TLR7, 20,000 for TLR8 and 25,000 for TLR9) and then treated with test compounds in DMSO to yield a final dose response concentration range of 0.05 nM-50 μM. After a 30 minute compound pre-treatment at room temperature, the cells are then stimulated with a TLR7 ligand (gardiquimod at a final concentration of 7.5 μM), TLR8 ligand (R848 at a final concentration of 15.9 μM) or TLR9 ligand (ODN2006 at a final concentration of 5 nM) to activate NF-κB and AP-1 which induce the production of SEAP. After a 22 hour incubation at 37° C., 500 CO2, SEAP levels are determined with the addition of HEK-Blue™ Detection reagent (Invivogen), a cell culture medium that allows for detection of SEAP, according to manufacturer's specifications.
# human TLR9 = human TLR9 (Homo sapiens (Human), UniProt Q9NR96); assay: TLR9 inhibition reporter assay (HEK-Blue SEAP);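 further: SEAP driven by IFN-β minimal promoter carrying five NF-κB and AP-1 sites, 22 h at 37 °C, compounds 0.05 nM–50 µM, inhibition scaled between agonist-plus-DMSO and reference-inhibitor wells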
# human TLR8 = human TLR8 (Homo sapiens (Human), UniProt Q9NR97); assay: TLR8 inhibition reporter assay (HEK-Blue SEAP);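 further: SEAP driven by IFN-β minimal promoter with five NF-κB and AP-1 sites, compounds tested 0.05 nM to 50 µM, 22 h incubation, inhibition relative to agonist plus DMSO wells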
# [1] = read-out: TLR9 IC50; HEK-Blue cells overexpressing human TLR9, ODN2006 5 nM stimulation, SEAP reporter
# [2] = read-out: TLR8 IC50; HEK-Blue cells overexpressing human TLR8, R848 15.9 μM stimulation, SEAP reporter
# human TLR9, sequence (Q9NR96 26-1032): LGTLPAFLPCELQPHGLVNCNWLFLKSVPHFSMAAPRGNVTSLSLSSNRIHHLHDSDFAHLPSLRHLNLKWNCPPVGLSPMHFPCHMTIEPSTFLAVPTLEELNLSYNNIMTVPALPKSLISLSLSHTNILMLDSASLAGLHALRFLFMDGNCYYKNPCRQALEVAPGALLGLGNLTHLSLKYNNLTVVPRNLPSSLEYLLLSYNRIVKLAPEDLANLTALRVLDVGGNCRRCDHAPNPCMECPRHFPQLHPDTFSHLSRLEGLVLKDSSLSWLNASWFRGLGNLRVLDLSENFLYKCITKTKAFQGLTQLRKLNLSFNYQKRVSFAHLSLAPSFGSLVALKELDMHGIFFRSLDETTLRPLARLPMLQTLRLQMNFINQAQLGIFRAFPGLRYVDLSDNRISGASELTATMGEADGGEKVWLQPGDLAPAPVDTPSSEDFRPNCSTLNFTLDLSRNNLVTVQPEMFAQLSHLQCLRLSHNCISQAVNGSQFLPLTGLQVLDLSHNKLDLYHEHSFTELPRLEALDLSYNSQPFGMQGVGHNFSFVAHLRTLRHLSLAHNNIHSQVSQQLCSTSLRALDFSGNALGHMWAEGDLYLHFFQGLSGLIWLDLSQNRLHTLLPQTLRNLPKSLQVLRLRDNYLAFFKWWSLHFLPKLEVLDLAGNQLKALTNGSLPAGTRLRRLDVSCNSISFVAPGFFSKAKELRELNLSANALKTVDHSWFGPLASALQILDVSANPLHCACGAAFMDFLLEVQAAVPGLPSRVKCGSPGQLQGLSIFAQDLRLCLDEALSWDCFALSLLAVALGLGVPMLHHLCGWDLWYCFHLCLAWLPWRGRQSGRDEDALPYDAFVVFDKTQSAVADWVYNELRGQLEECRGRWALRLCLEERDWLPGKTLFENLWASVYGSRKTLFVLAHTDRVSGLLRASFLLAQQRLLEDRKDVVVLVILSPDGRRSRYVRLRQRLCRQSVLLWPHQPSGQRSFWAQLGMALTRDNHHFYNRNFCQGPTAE
# human TLR8, sequence (Q9NR97 27-1041): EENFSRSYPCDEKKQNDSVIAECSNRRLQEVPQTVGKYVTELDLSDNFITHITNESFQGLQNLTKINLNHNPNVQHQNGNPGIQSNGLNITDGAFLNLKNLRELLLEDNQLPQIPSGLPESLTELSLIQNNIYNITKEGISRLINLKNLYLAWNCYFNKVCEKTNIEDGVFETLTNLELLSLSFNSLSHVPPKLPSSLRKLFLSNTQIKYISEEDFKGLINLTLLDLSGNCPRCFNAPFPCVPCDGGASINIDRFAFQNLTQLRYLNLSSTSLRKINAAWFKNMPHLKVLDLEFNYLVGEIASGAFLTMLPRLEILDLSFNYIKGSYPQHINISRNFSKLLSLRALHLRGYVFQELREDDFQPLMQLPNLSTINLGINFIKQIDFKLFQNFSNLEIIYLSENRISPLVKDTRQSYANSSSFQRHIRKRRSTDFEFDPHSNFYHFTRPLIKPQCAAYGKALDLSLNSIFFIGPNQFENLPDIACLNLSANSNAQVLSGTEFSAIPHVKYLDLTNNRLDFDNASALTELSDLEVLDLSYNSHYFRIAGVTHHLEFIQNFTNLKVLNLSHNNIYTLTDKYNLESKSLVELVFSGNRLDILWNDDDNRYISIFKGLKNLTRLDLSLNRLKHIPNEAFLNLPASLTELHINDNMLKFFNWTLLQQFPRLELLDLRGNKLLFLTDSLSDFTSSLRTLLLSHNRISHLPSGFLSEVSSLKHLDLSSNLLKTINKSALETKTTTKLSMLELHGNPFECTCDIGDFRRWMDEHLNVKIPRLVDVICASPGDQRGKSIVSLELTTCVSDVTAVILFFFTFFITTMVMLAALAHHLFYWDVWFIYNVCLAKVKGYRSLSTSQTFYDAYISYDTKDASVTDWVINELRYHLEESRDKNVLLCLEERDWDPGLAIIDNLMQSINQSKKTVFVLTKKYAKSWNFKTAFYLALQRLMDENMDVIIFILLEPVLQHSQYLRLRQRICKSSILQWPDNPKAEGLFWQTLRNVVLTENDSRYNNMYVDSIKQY
# human TLR7, sequence (Q9NYK1 27-1049): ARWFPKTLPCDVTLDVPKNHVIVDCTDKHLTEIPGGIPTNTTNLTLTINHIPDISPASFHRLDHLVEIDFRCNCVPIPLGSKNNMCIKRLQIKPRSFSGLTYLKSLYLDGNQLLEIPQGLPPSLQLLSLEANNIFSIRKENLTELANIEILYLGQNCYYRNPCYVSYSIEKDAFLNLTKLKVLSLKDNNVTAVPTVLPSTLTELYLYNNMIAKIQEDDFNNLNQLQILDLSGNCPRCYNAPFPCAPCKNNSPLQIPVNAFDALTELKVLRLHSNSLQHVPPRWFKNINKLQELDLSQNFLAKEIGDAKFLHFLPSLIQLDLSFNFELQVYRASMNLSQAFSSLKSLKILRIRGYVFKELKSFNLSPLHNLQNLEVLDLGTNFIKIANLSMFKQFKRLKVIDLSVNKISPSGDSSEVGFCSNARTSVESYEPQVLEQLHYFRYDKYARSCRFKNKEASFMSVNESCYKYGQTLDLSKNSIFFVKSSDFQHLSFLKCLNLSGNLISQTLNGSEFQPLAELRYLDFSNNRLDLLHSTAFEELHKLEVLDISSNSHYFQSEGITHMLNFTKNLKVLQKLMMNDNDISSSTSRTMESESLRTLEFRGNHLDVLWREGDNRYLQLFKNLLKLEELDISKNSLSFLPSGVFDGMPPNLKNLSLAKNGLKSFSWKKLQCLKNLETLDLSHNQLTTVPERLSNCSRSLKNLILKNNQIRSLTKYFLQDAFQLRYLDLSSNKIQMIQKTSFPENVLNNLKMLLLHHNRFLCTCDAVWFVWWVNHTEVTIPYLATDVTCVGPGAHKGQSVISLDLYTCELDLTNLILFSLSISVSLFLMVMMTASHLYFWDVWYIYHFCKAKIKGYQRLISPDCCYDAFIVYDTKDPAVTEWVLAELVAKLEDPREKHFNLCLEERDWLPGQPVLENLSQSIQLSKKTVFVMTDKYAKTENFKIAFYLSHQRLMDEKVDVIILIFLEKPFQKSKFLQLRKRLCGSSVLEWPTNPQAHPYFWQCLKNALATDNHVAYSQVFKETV
IC50 (human TLR7) [nM],IC50 (human TLR9; [1]) [nM],IC50 (human TLR8; [2]) [nM],IC50 (human TLR9; read-out: TLR9 IC50; HEK-Blue cells overexpressing human TLR9; ODN2006 5 nM stimulation; SEAP reporter) [nM],IC50 (human TLR8; read-out: TLR8 IC50; HEK-Blue cells overexpressing human TLR8; R848 15.9 μM stimulation; SEAP reporter) [nM],Compound
4.9,682,19,–,–,Cc1c(-c2[nH]c3cnc(C4CCC(N5CC6(COC6)C5)CC4)c(C)c3c2C(C)C)cn2ncnc2c1C (stereo not drawn) [Example 57]
3.4,1110,30,–,–,CNC(=O)CN(C)C1CCC(c2cc3c(C(C)C)c(-c4cc(OC)c5ncnn5c4)[nH]c3cn2)CC1 (stereo not drawn) [Example 338]
4.8,–,–,12600,11,COc1cc(-c2[nH]c3cnc(N4CCN(C5CCOCC5)C[C@H]4C)c(F)c3c2C(C)C)cn2ncnc12 [Example 452]
0.87,2960,0.77,–,–,COc1cc(-c2[nH]c3cnc(C4CCC(NC(C)C)CC4)c(F)c3c2C(C)C)cn2ncnc12 (stereo not drawn) [Example 73]
–,3140,3.9,–,–,COc1cc(-c2[nH]c3cnc(C4CCC(NC5(C)COC5)CC4)c(F)c3c2C(C)C)cn2ncnc12 (stereo not drawn) [Example 192]
6.2,1550,7.8,–,–,Cc1cc(-c2[nH]c3cnc(C4CCN(C(=O)CN(C)C)CC4)c(F)c3c2C(C)C)cc(C)n1 [Example 185]
0.98,–,1.6,–,–,COc1cc(-c2[nH]c3cnc(C4CCC(N5CCC5)CC4)c(F)c3c2C(C)C)cn2ncnc12 (stereo not drawn) [Example 46]
–,664,9.6,–,–,COc1cc(-c2[nH]c3cnc(C4CCC(N5CC(OC)C5)CC4)c(C)c3c2C(C)C)cn2ncnc12 (stereo not drawn) [Example 180]
–,2250,0.59,–,–,COc1cc(-c2[nH]c3cnc(C4CCC(NC5(C)COC5)CC4)c(F)c3c2C(C)C)cn2ncnc12 (stereo not drawn) [Example 105]
–,694,0.77,–,–,COc1cc(-c2[nH]c3cnc(C4CCC(NCC(C)(C)O)CC4)c(F)c3c2C(C)C)cn2ncnc12 (stereo not drawn) [Example 74]
–,437,7.7,–,–,COc1cc(-c2[nH]c3cnc(C4CCC(NCC(C)(C)OC)CC4)c(C)c3c2C(C)C)cn2ncnc12 (stereo not drawn) [Example 207]
–,577,3,–,–,COc1cc(-c2[nH]c3cnc(C4CCC(NCC(C)(C)O)CC4)c(F)c3c2C(C)C)cn2ncnc12 (stereo not drawn) [Example 195]
–,417,21,–,–,COc1cc(-c2[nH]c3cnc(C4CCC(N5CC(OC)C5)CC4)c(C)c3c2C(C)C)cn2ncnc12 (stereo not drawn) [Example 62]
4.9,–,4,–,–,COc1cc(-c2[nH]c3cnc(N4CCN(CCS(C)(=O)=O)CC4)c(F)c3c2C(C)C)cn2ncnc12 [Example 362]
–,5290,–,–,–,Cc1cc(-c2[nH]c3cnc(N4CCC(N(C)C(C)C)CC4)c(F)c3c2C(C)C)cn2ncnc12 [Example 68]
6.2,–,1.8,–,–,Cc1c(-c2[nH]c3cnc(C4CCN(CC(=O)N(C)C)CC4)c(F)c3c2C(C)C)cn2ncnc2c1C [Example 22]
–,43700,3.7,–,–,COc1cc(-c2[nH]c3cnc(N4CCN(CC(=O)N5CCOCC5)CC4)c(F)c3c2C(C)C)cn2ncnc12 [Example 363]
–,2990,–,–,–,COc1cc(-c2[nH]c3cnc(C4CCC(N(C)C(C)C)C4)cc3c2C(C)C)cn2ncnc12 (stereo not drawn) [Example 63]
–,260,13,–,–,COc1cc(-c2[nH]c3cnc(C4CCC(NCC(C)(C)OC)CC4)c(C)c3c2C(C)C)cn2ncnc12 (stereo not drawn) [Example 206]
–,1280,–,–,–,COc1cc(-c2[nH]c3cnc(C4CCC(NC5CCOCC5)CC4)c(F)c3c2C(C)C)cn2ncnc12 (stereo not drawn) [Example 160]
–,575,–,–,–,COc1cc(-c2[nH]c3cnc(C4CCC(NC5CCOCC5)CC4)c(F)c3c2C(C)C)cn2ncnc12 (stereo not drawn) [Example 194]
–,13100,973,–,–,"Cc1cc(-c2[nH]c3cnc(C4CCNCC4)cc3c2C(C)C)cn2ncnc12 [Example 4, 6-(3-isopropyl-5-(piperidin-4-yl)-1h-pyrrolo[2,3-c]pyridin-2-yl)-8-methyl-[1,2,4]triazolo [1,5-a]pyridine]"
–,506,–,–,–,COc1cc(-c2[nH]c3cnc(C4CCC(N(C)C(C)C)C4)cc3c2C(C)C)cn2ncnc12 (stereo not drawn) [Example 145]
–,2580,1.5,–,–,COc1cc(-c2[nH]c3cnc(N4CCC(N(C)CC(C)(C)C)CC4)c(F)c3c2C(C)C)cn2ncnc12 [Example 47]
